The values below come from the supplement of paper PMC7285287.

Counter-ions that a name gives are not always drawn. ± gives the standard deviation of the averaged measurements.

This test concerns Candida albicans SNY425 biofilm. As to the kind of experiment: biofilm OD600 relative to DMSO control (fraction of DMSO control); higher = more biofilm (less inhibition). On the procedure:
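C. albicans SNY425 biofilm optical density assays (OD600 of the adhered biofilm after media removal) in RPMI-MOPS pH 7.0 at 37 °C with shaking. Groups of 4 to 8 wells per compound are averaged and normalised to the average of DMSO loading control wells. Adherence inhibition was tested at 10 and 40 µM, sustained inhibition and disruption at 40 µM, and the MBIC series at 200 to 0.78 µM.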

Setting [1] is: 10 µM, assay detail: adherence inhibition, 96-well, compound during 90 min adherence only.
The mark [2] stands for this setting: 40 µM, assay detail: adherence inhibition, 96-well, compound during 90 min adherence only.
Where [3] appears, read: 40 µM, assay detail: disruption, 384-well, compound added to 24 h mature biofilm for further 24 h.
Setting [4] is: 40 µM, assay detail: sustained inhibition, 384-well, compound during adherence and 24 h growth.
[5] abbreviates: 0.78 µM, assay detail: sustained inhibition (MBIC series), 384-well, compound during adherence and 24 h growth.
The mark [6] stands for this setting: 3.125 µM, assay detail: sustained inhibition (MBIC series), 384-well, compound during adherence and 24 h growth.
Where [7] appears, read: 12.5 µM, assay detail: sustained inhibition (MBIC series), 384-well, compound during adherence and 24 h growth.
[8] abbreviates: 50 µM, assay detail: sustained inhibition (MBIC series), 384-well, compound during adherence and 24 h growth.
Where [9] appears, read: 200 µM, assay detail: sustained inhibition (MBIC series), 384-well, compound during adherence and 24 h growth.

Take `Oc1ncnc2[nH]ncc12` [Allopurinol]: the “biofilm OD600” value by setting is: under setting [1], 0.938; under setting [2], 0.887; under setting [3], 1.02 ± 0.07; under setting [4], 0.982 ± 0.038.
On the same counts, the results for `CNCCCC1c2ccccc2C=Cc2ccccc21` [Protriptyline hydrochloride] are 1.05, 0.899, 1.01 ± 0.012 and 1.02 ± 0.022.
With `Nc1ccc(S(=O)(=O)Nc2ccnn2-c2ccccc2)cc1` [Sulfaphenazole], the “biofilm OD600” value is 0.962 under setting [1], 0.934 under setting [2], 1.01 ± 0.017 under setting [3] and 1.01 ± 0.03 under setting [4].
`Cc1cnc(C(=O)O)c[n+]1[O-]` [acipimox]: the “biofilm OD600” value is, setting by setting: under setting [1], 0.823; under setting [2], 0.56; under setting [3], 0.997 ± 0.034; under setting [4], 0.992 ± 0.029.
For the compound `C[C@@H]1CC[C@H]2[C@@H](C)C(=O)O[C@@H]3O[C@@]4(C)CC[C@@H]1[C@]32OO4` [artemisinin], the “biofilm OD600” value reads like this: under setting [5], 1.09; under setting [6], 1.06; under setting [1], 1.14; under setting [7], 1.01; under setting [2], 0.966; under setting [3], 0.955 ± 0.017. Further, the “biofilm OD600” value runs as follows: under setting [4], 0.838 ± 0.019; under setting [8], 0.893; under setting [9], 0.744.
Consider `O=C([O-])C(O)[C@H](O)[C@@H](O)[C@H](O)[C@H](O)CO.O=C([O-])C(O)[C@H](O)[C@@H](O)[C@H](O)[C@H](O)CO.[Ca+2]` (some centres undefined) [calcium gluceptate], for which the “biofilm OD600” value reads like this: under setting [5], 0.996; under setting [6], 1.09; under setting [1], 0.997; under setting [7], 1.02; under setting [2], 0.955; under setting [3], 0.941 ± 0.037. The “biofilm OD600” value reads like this: under setting [4], 0.955 ± 0.022; under setting [8], 1.02; under setting [9], 0.823.
Take `N[C@@H](C(=O)N[C@@H]1C(=O)N2C(C(=O)O)=C(Cl)CS[C@H]12)c1ccccc1` [cefaclor]: the “biofilm OD600” value turned out to be 1.07 under setting [1], 0.896 under setting [2], 1.03 ± 0.028 under setting [3] and 0.983 ± 0.032 under setting [4].
Turning to `Oc1c(Cl)cc(Cl)c2cccnc12` [chloroxine], the “biofilm OD600” value is 1.03 under setting [5]; 1.03 under setting [6]; 0.788 under setting [1]; 0.926 under setting [7]; 0.373 under setting [2]; 0.907 ± 0.031 under setting [3]. In addition, the “biofilm OD600” value reads like this: under setting [4], 0.28 ± 0.019; under setting [8], 0.333; under setting [9], 0.268.
In the case of `CN(C)CCC(c1ccc(Cl)cc1)c1ccccn1` (centres undefined) [chlorpheniramine maleate], the “biofilm OD600” value reads like this: under setting [1], 1.02; under setting [2], 0.894; under setting [3], 1 ± 0.044; under setting [4], 1.01 ± 0.026.
As to `N[C@H](Cc1ccccc1)C(=O)O` [d-phenylalanine], the “biofilm OD600” value reads like this: under setting [1], 1; under setting [2], 1.01; under setting [3], 0.973 ± 0.034; under setting [4], 0.994 ± 0.06.
Turning to `CCCCCCOC(=O)NC(=N)c1ccc(NCc2nc3cc(C(=O)N(CCC(=O)OCC)c4ccccn4)ccc3n2C)cc1` [dabigatran etexilate mesylate], the “biofilm OD600” value reads like this: under setting [5], 0.9; under setting [6], 0.9; under setting [1], 1.05; under setting [7], 0.92; under setting [2], 0.776; under setting [3], 0.971 ± 0.031. Besides, the “biofilm OD600” value worked out at 0.894 ± 0.046 under setting [4], 0.843 under setting [8] and 0.628 under setting [9].
For the compound `NC(=O)C(c1ccccc1)(c1ccccc1)[C@@H]1CCN(CCc2ccc3c(c2)CCO3)C1` [darifenacin hydrobromide], the “biofilm OD600” value worked out at 1.04 under setting [1], 0.916 under setting [2], 1 ± 0.018 under setting [3] and 1.05 ± 0.046 under setting [4].
Turning to `Cc1c(OCC(F)(F)F)ccnc1C[S@@+]([O-])c1nc2ccccc2[nH]1` [dexlansoprazole], the “biofilm OD600” value is, setting by setting: under setting [5], 0.981; under setting [6], 0.887; under setting [1], 0.925; under setting [7], 0.833; under setting [2], 0.837; under setting [3], 1.01 ± 0.024. For the same compound, the “biofilm OD600” value reads like this: under setting [4], 0.7 ± 0.091; under setting [8], 0.643; under setting [9], 0.625.
On to `COc1ccc(-c2cc(=O)c3c(O)cc(O[C@@H]4O[C@H](CO[C@@H]5O[C@@H](C)[C@H](O)[C@@H](O)[C@H]5O)[C@@H](O)[C@H](O)[C@H]4O)cc3o2)cc1O` [diosmin], for which the “biofilm OD600” value was found to be 1 under setting [1], 0.962 under setting [2], 1.09 ± 0.14 under setting [3] and 1.07 ± 0.059 under setting [4].
With `CCN(CC)C(=S)SSC(=S)N(CC)CC` [disulfiram], the “biofilm OD600” value under setting [5] came out at 0.958; the “biofilm OD600” value under setting [6] amounted to 1; the “biofilm OD600” value under setting [1] was determined as 0.991; the “biofilm OD600” value under setting [7] amounted to 1; the “biofilm OD600” value under setting [2] is 0.857; the “biofilm OD600” value under setting [3] amounted to 0.999 ± 0.012. Further, the “biofilm OD600” value was determined as 0.76 ± 0.084 under setting [4], 0.764 under setting [8] and 0.417 under setting [9].
As for `Cn1c(=O)c2c(ncn2CC(O)CO)n(C)c1=O` (centres undefined) [dyphylline], the “biofilm OD600” value under setting [1] came to 0.909, the “biofilm OD600” value under setting [2] turned out to be 0.872, the “biofilm OD600” value under setting [3] worked out at 1.02 ± 0.046 and the “biofilm OD600” value under setting [4] came out at 1.02 ± 0.047.
As for `CN1CCC[C@@H]1Cc1c[nH]c2ccc(CCS(=O)(=O)c3ccccc3)cc12` [eletriptan hydrobromide], the “biofilm OD600” value amounted to 0.99 under setting [1], 0.945 under setting [2], 1.014 ± 0.0095 under setting [3] and 1 ± 0.026 under setting [4].
For the compound `CC[C@H]1OC(=O)[C@H](C)[C@@H](O[C@H]2C[C@@](C)(OC)[C@@H](O)[C@H](C)O2)[C@H](C)[C@@H](O[C@@H]2O[C@H](C)C[C@H](N(C)C)[C@H]2O)[C@](C)(O)C[C@@H](C)C(=O)[C@H](C)[C@@H](O)[C@]1(C)O` [erythromycin], the “biofilm OD600” value runs as follows: under setting [1], 0.879; under setting [2], 0.874; under setting [3], 1.03 ± 0.026; under setting [4], 1.03 ± 0.017.
Consider `CCC(=O)Oc1ccc2c(c1)CC[C@@H]1[C@@H]2CC[C@]2(C)[C@@H](OC(=O)CC)CC[C@@H]12` [estradiol dipropionate], for which the “biofilm OD600” value is, setting by setting: under setting [1], 0.958; under setting [2], 0.844; under setting [3], 0.954 ± 0.037; under setting [4], 0.987 ± 0.012.
Regarding `O=c1[nH]c(=O)n([C@H]2C[C@H](O)[C@@H](CO)O2)cc1F` [floxuridine], the “biofilm OD600” value is, setting by setting: under setting [1], 1.02; under setting [2], 0.967; under setting [3], 0.969 ± 0.017; under setting [4], 0.927 ± 0.025.
For the compound `Nc1nc(=O)[nH]cc1F` [flucytosine], the “biofilm OD600” value is, setting by setting: under setting [5], 0.866; under setting [6], 0.873; under setting [1], 0.907; under setting [7], 0.862; under setting [2], 0.776; under setting [3], 0.983 ± 0.06. Also, the “biofilm OD600” value by setting is: under setting [4], 0.798 ± 0.066; under setting [8], 0.758; under setting [9], 0.719.
`CC1OC1P(=O)(O)O` (centres undefined) [fosphomycin]: the “biofilm OD600” value by setting is: under setting [1], 0.972; under setting [2], 1.04; under setting [3], 1.01 ± 0.019; under setting [4], 0.982 ± 0.011.
For `N[C@@H](Cc1cc(I)c(Oc2ccc(O)c(I)c2)c(I)c1)C(=O)O` [liothyronine sodium], the “biofilm OD600” value by setting is: under setting [1], 1.14; under setting [2], 1.15; under setting [3], 0.989 ± 0.05; under setting [4], 0.96 ± 0.021.
For `Cc1cccc(Nc2ccccc2C(=O)O)c1C` [mefenamic acid], the “biofilm OD600” value under setting [5] stood at 1.02; the “biofilm OD600” value under setting [6] is 1.01; the “biofilm OD600” value under setting [1] was 0.973; the “biofilm OD600” value under setting [7] turned out to be 0.958; the “biofilm OD600” value under setting [2] worked out at 0.93; the “biofilm OD600” value under setting [3] amounted to 0.875 ± 0.038. Besides, the “biofilm OD600” value is, setting by setting: under setting [4], 0.905 ± 0.011; under setting [8], 0.875; under setting [9], 0.714.
Turning to `CCN(CC)C(=O)C1(c2ccccc2)CC1CN` (centres undefined) [milnacipran hydrochloride], the “biofilm OD600” value under setting [1] amounted to 0.934, the “biofilm OD600” value under setting [2] is 0.943, the “biofilm OD600” value under setting [3] is 0.977 ± 0.026 and the “biofilm OD600” value under setting [4] was found to be 0.962 ± 0.018.
As for `CCCCCCCCCCCCCCCCOP(=O)([O-])OCC[N+](C)(C)C` [miltefosine], the “biofilm OD600” value under setting [5] stood at 0.9; the “biofilm OD600” value under setting [6] turned out to be 0.9; the “biofilm OD600” value under setting [1] was found to be 0.99; the “biofilm OD600” value under setting [7] came out at 1.08; the “biofilm OD600” value under setting [2] came out at 0.844; the “biofilm OD600” value under setting [3] amounted to 1.09 ± 0.035. The “biofilm OD600” value turned out to be 0.222 ± 0.015 under setting [4], 0.298 under setting [8] and 0.259 under setting [9].
